Data as given in patent US11957687B2 (REGENERON PHARMACEUTICALS, INC., priority 2019, dated 2024).
pIC50: −log10 of the molar value.

molecular target: HSD17B13 (Homo sapiens (Human), UniProt Q7Z5P4); assay: HSD17B13 enzymatic inhibition assay (150 nM or 50 nM HSD17B13); type: biochemical; details: 50 nM HSD17B13; read-out: Inhibition of 50 nM of HSD17B13 IC50
Sequence (Q7Z5P4 other isoform, or with tags, fused parts or gaps): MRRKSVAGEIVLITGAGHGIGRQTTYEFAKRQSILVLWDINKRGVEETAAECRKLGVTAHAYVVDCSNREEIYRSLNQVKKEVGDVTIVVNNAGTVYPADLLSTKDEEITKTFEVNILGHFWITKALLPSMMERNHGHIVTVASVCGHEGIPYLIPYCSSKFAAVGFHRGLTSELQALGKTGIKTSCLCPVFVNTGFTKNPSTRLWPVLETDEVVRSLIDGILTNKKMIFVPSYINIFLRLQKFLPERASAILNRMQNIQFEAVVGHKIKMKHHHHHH

SMILES | pIC50
COc1ccc2c(c1)Oc1ccccc1C2NC(=O)c1ccc(C(F)(F)F)[nH]c1=O (stereo not drawn) [Compound 54, N-(3-methoxy-9H-xanthen-9-yl)-2-oxo-6-(trifluoromethyl)-1,2-dihydropyridine-3-carboxamide] | 5.83
COc1ccc2c(c1)Oc1cc(OC)ccc1C2NC(=O)c1ccc(C(F)(F)F)[nH]c1=O [Compound 56, N-(3,6-dimethoxy-9H-xanthen-9-yl)-2-oxo-6-(trifluoromethyl)-1,2-dihydropyridine-3-carboxamide] | 6.36
COc1ccc2c(c1)Oc1cccc(OC)c1C2NC(=O)c1ccc(C(F)(F)F)[nH]c1=O (stereo not drawn) [Compound 57, N-(1,6-dimethoxy-9H-xanthen-9-yl)-2-oxo-6-(trifluoromethyl)-1,2-dihydropyridine-3-carboxamide] | 6.34
O=C(NC(c1ccccc1)C1CCCCC1)c1ccc(C(F)(F)F)[nH]c1=O (stereo not drawn) [Compound 58, N-(cyclohexyl(phenyl)methyl)-2-oxo-6-(trifluoromethyl)-1,2-dihydropyridine-3-carboxamide] | 5.54
O=C(NC1c2ccccc2-c2ccccc21)c1cnc(Cc2ccccc2)[nH]c1=O [Compound 59, 2-benzyl-N-(9H-fluoren-9-yl)-6-oxo-1,6-dihydropyrimidine-5-carboxamide] | < 5.00
O=C(Nc1cc(-c2ccccc2)cc(-c2ccccc2)c1)c1ccc(C(F)(F)F)[nH]c1=O [Compound 60, N-([1,1′:3′,1″-terphenyl]-5′-yl)-2-oxo-6-(trifluoromethyl)-1,2-dihydropyridine-3-carboxamide] | < 5.00
Cc1ccc(C(NC(=O)c2ccc(C(F)F)[nH]c2=O)c2ccc(C)cc2)cc1 [Compound 61, N-(di-p-tolylmethyl)-6-(difluoromethyl)-2-oxo-1,2-dihydropyridine-3-carboxamide] | 5.65
Cc1cccc(C(NC(=O)c2ccc(C(F)(F)F)[nH]c2=O)c2cccc(C)c2)c1 [Compound 62, N-(di-m-tolylmethyl)-6-(trifluoromethyl)-2-oxo-1,2-dihydropyridine-3-carboxamide] | 5.95
CC(=O)Nc1ccc(C(NC(=O)c2ccc(C(F)(F)F)[nH]c2=O)c2ccccc2)cc1 (stereo not drawn) [Compound 66, N-((4-acetamidophenyl)(phenyl)methyl)-2-oxo-6-(trifluoromethyl)-1,2-dihydropyridine-3-carboxamide] | 5.14
O=C(NC(c1ccc(Cl)cc1)c1ccccn1)c1ccc(C(F)(F)F)[nH]c1=O (stereo not drawn) [Compound 67, N-((4-chlorophenyl)(pyridin-2-yl)methyl)-2-oxo-6-(trifluoromethyl)-1,2-dihydropyridine-3-carboxamide] | 5.64
O=C(NC(c1ccncc1)c1ccc(Cl)cc1)c1ccc(C(F)(F)F)[nH]c1=O (stereo not drawn) [Compound 68, N-((4-chlorophenyl)(pyridin-4-yl)methyl)-2-oxo-6-(trifluoromethyl)-1,2-dihydropyridine-3-carboxamide] | 5.60
O=C(NC(c1ccc(Cl)cc1)c1cccnc1)c1ccc(C(F)(F)F)[nH]c1=O (stereo not drawn) [Compound 69, N-((4-chlorophenyl)(pyridin-3-yl)methyl)-2-oxo-6-(trifluoromethyl)-1,2-dihydropyridine-3-carboxamide] | 5.59
O=C(NC(c1ccc(Cl)cc1)c1cnccn1)c1ccc(C(F)(F)F)[nH]c1=O (stereo not drawn) [Compound 70, N-((4-chlorophenyl)(pyrazin-2-yl)methyl)-2-oxo-6-(trifluoromethyl)-1,2-dihydropyridine-3-carboxamide] | < 5.00
O=C(NC(c1ccc(Cl)cc1)c1ncccn1)c1ccc(C(F)(F)F)[nH]c1=O (stereo not drawn) [Compound 71, N-((4-chlorophenyl)(pyrimidin-2-yl)methyl)-2-oxo-6-(trifluoromethyl)-1,2-dihydropyridine-3-carboxamide] | 5.23
O=C(NC(c1ccccc1)c1cccc(Br)n1)c1ccc(C(F)(F)F)[nH]c1=O (stereo not drawn) [Compound 72, N-((6-bromopyridin-2-yl)(phenyl)methyl)-2-oxo-6-(trifluoromethyl)-1,2-dihydropyridine-3-carboxamide] | 5.15
O=C(NC(c1ccncc1)c1ccncc1)c1ccc(C(F)(F)F)[nH]c1=O [Compound 73, N-(di(pyridin-4-yl)methyl)-2-oxo-6-(trifluoromethyl)-1,2-dihydropyridine-3-carboxamide] | < 5.00
O=C(Cc1ccccc1)Nc1ccc(C(NC(=O)c2ccc(C(F)(F)F)[nH]c2=O)c2ccccc2)cc1 (stereo not drawn) [Compound 74, N-(phenyl(4-(2-phenylacetamido)phenyl)methyl)-2-oxo-6-(trifluoromethyl)-1,2-dihydropyridine-3-carboxamide] | 5.86
O=C(Nc1ccc(C(NC(=O)c2ccc(C(F)(F)F)[nH]c2=O)c2ccccc2)cc1)c1ccccc1 (stereo not drawn) [Compound 75, N-((4-benzamidophenyl)(phenyl)methyl)-2-oxo-6-(trifluoromethyl)-1,2-dihydropyridine-3-carboxamide] | 5.73
O=C(NC(c1ccccc1)c1ccc(C2CCOCC2)cc1)c1ccc(C(F)(F)F)[nH]c1=O (stereo not drawn) [Compound 76, N-(phenyl(4-(tetrahydro-2H-pyran-4-yl)phenyl)methyl)-2-oxo-6-(trifluoromethyl)-1,2-dihydropyridine-3-carboxamide] | 5.77
O=C(NC(c1ccccc1)c1ccc(C2CCC2)cc1)c1ccc(C(F)(F)F)[nH]c1=O (stereo not drawn) [Compound 77, N-((4-cyclobutylphenyl)(phenyl)methyl)-2-oxo-6-(trifluoromethyl)-1,2-dihydropyridine-3-carboxamide] | 6.17
COc1ccc(C(NC(=O)c2c(C)cc(C(F)(F)F)[nH]c2=O)c2ccccc2)cc1 (stereo not drawn) [Compound 78, N-((4-methoxyphenyl)(phenyl)methyl)-4-methyl-2-oxo-6-(trifluoromethyl)-1,2-dihydropyridine-3-carboxamide] | 5.87
O=C(NC(c1ccccc1OC(F)(F)F)c1ccccc1OC(F)(F)F)c1ccc(C(F)(F)F)[nH]c1=O [Compound 79, N-(bis(2-(trifluoromethoxy)phenyl)methyl)-2-oxo-6-(trifluoromethyl)-1,2-dihydropyridine-3-carboxamide] | 5.63
O=C(NC(c1ccccc1)c1ccc2c(c1)CCCO2)c1ccc(C(F)(F)F)[nH]c1=O (stereo not drawn) [Compound 81, N-(chroman-6-yl(phenyl)methyl)-2-oxo-6-(trifluoromethyl)-1,2-dihydropyridine-3-carboxamide] | 5.96
O=C(NC(c1ccccc1)c1ccc2c(c1)CCOC2)c1ccc(C(F)(F)F)[nH]c1=O (stereo not drawn) [Compound 82, N-(isochroman-6-yl(phenyl)methyl)-2-oxo-6-(trifluoromethyl)-1,2-dihydropyridine-3-carboxamide] | 6.08
O=C(NC(c1ccccc1)c1ccc2c(c1)COCC2)c1ccc(C(F)(F)F)[nH]c1=O (stereo not drawn) [Compound 83, N-(isochroman-7-yl(phenyl)methyl)-2-oxo-6-(trifluoromethyl)-1,2-dihydropyridine-3-carboxamide] | 5.63
O=C(NC(c1ccccc1)c1ccc2c(c1)OCC2)c1ccc(C(F)(F)F)[nH]c1=O (stereo not drawn) [Compound 84, N-((2,3-dihydrobenzofuran-6-yl)(phenyl)methyl)-2-oxo-6-(trifluoromethyl)-1,2-dihydropyridine-3-carboxamide] | 5.98
O=C(NC(c1ccccc1)c1ccc(-c2ccncc2)cc1)c1ccc(C(F)(F)F)[nH]c1=O (stereo not drawn) [Compound 85, 2-oxo-N-(phenyl(4-(pyridin-4-yl)phenyl)methyl)-6-(trifluoromethyl)-1,2-dihydropyridine-3-carboxamide] | 6.08
